Data set [1] deals with T1, BRD4BD1 (Homo sapiens, UniProt O60885).
T1 construct: host or cells: K562-Cas9
Nature of the data set: cell-based. It counts as cell-based. The settings on record: K562, 16 h. As to the method:
Reporter cell lines were generated as described previously.
(§1) Then, 50 µl of cell suspension was seeded in 384-well plates and immediately treated with DMSO or drug for 16 h. The indicated drugs were dispensed with a D300 digital dispenser (Tecan Genomics). The fluorescence signal was quantified by flow cytometry (FACSymphony flow cytometer, BD Biosciences). Using FlowJo (flow cytometry analysis software, BD Biosciences), the geometric mean of the eGFP and mCherry fluorescent signal for round and mCherry-positive cells was calculated. The ratio of eGFP to mCherry was normalized to the average of ten DMSO-treated controls.

Data set [2] relates to FAM–BRD4BD1 + YPEL5–WDR26. Put plainly: Real-time FP monitoring the rate of ternary complex formation. It is filed as binding, human. The settings on record: in vitro, DTT-containing buffer.
Description: Here, the concentration of DTT in the binding buffer used for preparing the tracer–E3 ligase mixture varied from 0.1 to 5 mM.
Data set [3] deals with T2, BRD4BD1+BD2 (Homo sapiens, UniProt O60885).
T2 construct: host or cells: K562-Cas9
Put plainly: BRD4 reporter stability analysis, BRD4BD1+BD2–eGFP (K562-Cas9, flow cytometry). It is filed as cell-based. The settings on record: K562, 16 h. How it is done:
(§2) The Cilantro 2 reporter vector (PGK.BsmBICloneSite-10aaFlexibleLinker-eGFP.IRES.mCherry. cppt.EF1α.PuroR; Addgene, 74450) was used for flow-based degradation assays. […] Reporter cell lines were generated as described previously.
as §1

Data set [4] in a line: Plasma stability, mouse. The settings on record: read-out: Plasma Stability (T1/2 min). It counts as in vitro ADME.
In data set [5] the target is T3, BRD4BD2 (Homo sapiens, UniProt O60885).
T3 construct: host or cells: K562-Cas9
Nature of the data set: BRD4 reporter stability analysis, BRD4BD2–eGFP (K562-Cas9, flow cytometry). It is filed as cell-based. As to the method: as §2, §1

Data set [6] deals with T4, BRD4 (Homo sapiens, UniProt O60885).
T4 construct: Endogenous BRD4 protein levels were evaluated using the Nano-Glo HiBiT lytic detection system; endogenous in cells; host or cells: Jurkat (HiBiT knock-in; some series in YPEL5-/- cells re-expressing WT or mutant YPEL5-FLAG)
Nature of the data set: HiBiT–BRD4 assay (endogenous BRD4 protein levels). It counts as cell-based. How it is done: Introduction of a HiBiT coding sequence into the endogenous BRD4 locus in Jurkat cells was achieved using CRISPR–Cas9 genome editing. Alt-R CRISPR RNA (crRNA) and trans-activating crRNA (tracrRNA) (Integrated DNA Technologies) were resuspended in nuclease-free duplex buffer (Integrated DNA Technologies) at a concentration of 200 µM each. Equal volumes of crRNA and tracrRNA were mixed (final concentration of 100 µM each) and heated for 5 min at 95 °C. After heating, the complex was gradually cooled to room temperature. The oligo complex was then incubated at room temperature for 20 min with the Alt-R Cas9 nuclease V3 (Integrated DNA Technologies) to form the ribonucleoprotein (RNP) complex. The double-stranded DNA homology-directed repair (HDR) template (HiBiT–BRD4 with extensions, shown below), the RNP complex and an electroporation enhancer (Integrated DNA Technologies) were then electroporated into Jurkat cells using an Amaxa 4D-Nucleofector (Lonza). Electroporated cells were transferred to medium with HRD enhancer (Integrated DNA Technologies). Single cells were subsequently isolated by fluorescence-activated cell sorting and HiBiT expression from individual clones was detected with the Nano-Glo HiBiT lytic detection system (Promega). Sequences for the crRNA and HDR donor are provided below.
Endogenous BRD4 protein levels were evaluated using the Nano-Glo HiBiT lytic detection system (Promega). In brief, 1.5 × 10^4 HiBiT–BRD4 Jurkat cells were seeded into 384-well plates and incubated with the indicated concentrations of compounds. After 5 h, the plates were subjected to a Nano-Glo HiBiT lytic detection system as described in the manufacturer’s manual. The HiBiT–BRD4 assays were conducted in biological triplicates.

Data set [7] can be described thus: GSH chemical stability. It is filed as physicochemical. The settings on record: for half-life: GSH chemical stability; for remaining at 5 min / remaining at […] / remaining at 0.5 h / remaining at 1 h / remaining at 2 h: GSH; for remaining at […]: 15 min; for remaining at 0.5 h: 30 min; for remaining at 1 h: 60 min; for remaining at 2 h: 120 min. From the text: Afatinib Time Peak Area %Remaining Ln T1/2
(Ctrl) (min) Ratio (%remaining) (min)
(min) Ratio (%remaining) (min)

In data set [8] the test system is BRD2, BRD3, BRD4. Put plainly: Western blotting of BET protein degradation. It is filed as cell-based, human. The settings on record: immunoblotting (and proteome-wide MS). As to the method:
Total cells lysates were prepared in 2× sample loading buffer (that is, 250 mM Tris-HCl pH 6.8, 4% SDS, 10% glycerol, 0.006% bromophenol blue, 2% β-mercaptoethanol, 50 mM sodium fluoride and 5 mM sodium orthovanadate). The samples with cell lysates were boiled for 5–8 min at 95 °C. The protein concentrations of the cell lysates were quantified using the BCA method and a BCA protein assay kit (Thermo Fisher Scientific). […] After washing the membranes with PBS for 30 min, the membranes were detected on a Li-COR Odyssey CLx system.

Data set [9] can be described thus: Plasma stability, human. It counts as in vitro ADME. The settings on record: read-out: Plasma Stability (T1/2 min).
In data set [10] the target is T5, BRD3BD1 (Homo sapiens, UniProt Q15059).
T5 construct: Cellular fluorescent reporter assay testing ZZ1-induced degradation of BRD2 and BRD3 BD1 bromodomains; expressed in transfected cells
T5 sequence (Q15059 34-140 limits assumed): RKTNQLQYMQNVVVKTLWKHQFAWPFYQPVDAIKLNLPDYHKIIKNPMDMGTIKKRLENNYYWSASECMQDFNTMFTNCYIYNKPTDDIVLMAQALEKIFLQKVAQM
Put plainly: Cellular fluorescent reporter assay, BRD3 BD1. It is filed as cell-based. As to the method:
as §1

Data set [11] deals with T6, BRD2BD1 (Homo sapiens, UniProt P25440).
T6 construct: Cellular fluorescent reporter assay testing ZZ1-induced degradation of BRD2 and BRD3 BD1 bromodomains; expressed in transfected cells
T6 sequence (P25440 74-180 limits assumed): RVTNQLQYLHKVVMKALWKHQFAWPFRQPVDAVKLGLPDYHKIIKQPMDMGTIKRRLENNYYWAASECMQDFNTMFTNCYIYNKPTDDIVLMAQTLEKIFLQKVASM
Put plainly: Cellular fluorescent reporter assay, BRD2 BD1. It is filed as cell-based. As to the method:
as §1

Data set [12] in a line: Microsome stability, MLM. It counts as in vitro ADME. The settings on record: mouse, liver microsomes.
Data set [13] in a line: Microsome stability, HLM. It counts as in vitro ADME. The settings on record: human, liver microsomes.
Data set [14] addresses T7, YPEL5 (Homo sapiens, UniProt P62699).
T7 construct: made in house; host or cells: Trichoplusia ni High Five insect cells
Put plainly: Octet BLI, binary affinity of degrader for YPEL5 (no BRD4BD1). It counts as binding. The settings on record: absence of BRD4BD1.
Description: To quantify interactions between the degrader-bound neosubstrates and the CTLH E3 neosubstrate receptor module, we determined the KD using Octet BLI.
For each measurement, one of the loaded sensors was dipped in the reference solution containing 0 or 5 μM degrader in the BLI binding buffer (in the absence of the analyte protein). The reference response values were subtracted from the responses elicited by all the neosubstrate-containing solutions before data analysis. All BLI experiments were carried out at 20 °C using the eight-channel Octet R8 system (Sartorius). Concentrated proteins and compounds were diluted in the BLI binding buffer composed of 25 mM HEPES pH 7.5, 150 mM NaCl, 1 mM DTT and 0.05% Tween-20.
The raw data were processed with Octet analysis software (Sartorius) by applying a global fitting with linked Rmax values (assuming a 1:1 binding model). […] KD was estimated by nonlinear regression using the one-site binding model.

Data set [15] deals with T8, FAM–BRD4BD1 + YPEL5–WDR26 module (Homo sapiens, UniProt O60885+P62699).
T8 construct: fluorescent BRD4 bromodomain substrates, either in isolation (BRD4BD1 and BRD4BD2) or in tandem (BRD4BD1+BD2); GST (N, cleaved yes); made in house; host or cells: BRD4BD1: E. coli BL21 (DE3) RIL; YPEL5–WDR26ΔCTLH: Trichoplusia ni High Five insect cells
Nature of the data set: FP assay quantifying ternary complex formation. The settings on record: *BRD4BD1 binding to YPEL5–WDR26 upon degrader titration. From the text: The potency of the degraders was expressed as the EC50 estimated by nonlinear regression using a four-parameter [agonist] versus response model.

Data set [16] deals with T9, *BRD4BD1 / YPEL5-CTLH E3 (Homo sapiens, UniProt O60885+P62699).
T9 construct: fluorescent BRD4 bromodomain substrates, either in isolation (BRD4BD1 and BRD4BD2) or in tandem (BRD4BD1+BD2); GST (N, cleaved yes); made in house; host or cells: CTLH E3 and UBA1: High Five insect cells; BRD4BD1, UBE2H, ubiquitin: E. coli BL21 (DE3) RIL
Put plainly: In vitro ubiquitylation assay (YPEL5-CTLH E3, UBE2H). It is filed as biochemical. The settings on record: YPEL5-CTLH E3-dependent.
Description: All ubiquitylation assays were performed at room temperature in the final reaction buffer containing 25 mM HEPES pH 7.5, 150 mM NaCl, 0.25 mM DTT, 5 mM ATP and 10 mM MgCl2. Samples at indicated time points were quenched by mixing an aliquot of the total reaction mixture with a reducing Laemmli buffer and subjected to SDS–PAGE. Substrate ubiquitylation was visualized by a fluorescence scan of SDS–PAGE gels using the Amersham Typhoon Imager 600 (GE Healthcare).
The mixture was incubated at room temperature for 1 h and supplemented with 0.2 μM E1 UBA1 and 20 μM ubiquitin to initiate the reaction.

Molecules are shown by their SMILES. “And” between values parts separate entries of the source, which are not always exact repeats. Equal values may be shown once. “Also recorded” adds a separate entry of the source.

T7 sequence (P62699 2-121): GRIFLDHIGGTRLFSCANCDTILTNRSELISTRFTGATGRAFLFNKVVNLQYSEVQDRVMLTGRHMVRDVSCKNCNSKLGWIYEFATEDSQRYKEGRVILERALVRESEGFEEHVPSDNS

As for `Cc1sc2c(c1C)C(c1ccc(NC(=O)c3ccc(S(=O)(=O)F)c(Cl)c3)cc1)=N[C@@H](CC(=O)OC(C)(C)C)c1nnc(C)n1-2` [ZZ1], the DC50 in data set [1] (BRD4BD1 reporter) was 126 nM and 128 nM; in data set [3] it was 75 ± 16.4 nM; in [5] (BRD4BD2 reporter, K562, 16 h), 532 ± 80.2 nM; in data set [6] (Jurkat cells pretreated with MG132 for 1 h, then ZZ1 5 h), > 20000 nM; in data set [6] (Jurkat cells pretreated with MLN-4924 for 1 h, then ZZ1 5 h) it was 1400 ± 130 nM; in data set [6] (Jurkat cells, 5 h), 502 nM and 489 nM. Moreover, the DC50 in [6] (Jurkat, 5 h, cells pretreated with 100 μM GSH for 2 h) came out at 152 ± 19 nM; in data set [6] (Jurkat, 5 h, no GSH pre-treatment) it was 237 ± 20 nM; in data set [6] (WT YPEL5-expressing Jurkat cells, 5 h) it was 168 ± 15 nM; in [6] (YPEL5 L62A-expressing Jurkat cells, 5 h), 841 ± 137 nM; in data set [6] (YPEL5 R41A-expressing Jurkat cells, 5 h) it was 719 ± 102 nM; in data set [6] (YPEL5 T36A-expressing Jurkat cells, 5 h), 971 ± 176 nM. Besides, the DC50 is 33.5 ± 5.4 nM in data set [10] and 70.1 ± 3.6 nM in [11]. Further, the Dmax in [1] (BRD4BD1 reporter) is 88%; in data set [1] (K562, BRD4BD1 reporter), 69%; in data set [3], 80%; in data set [5] (K562) it was 40%; in data set [6] (Jurkat) it was 82%; in data set [10] it was 73%. In data set [11], this molecule gave a Dmax of 63%. The “rate of ternary complex formation” value in data set [2] is reported as “induced ternary complex formation slowly”. The half-life in data set [4] was 57 min; in data set [7] (buffer), < 5 min; in data set [9], 45 min; in data set [12] (read-out: MLM Stability (T1/2 min)), 5.5 min; in data set [13] (read-out: HLM Stability (T1/2 min)), 7.1 min. In [7] (buffer), this molecule gave an amount remaining at 5 min of 26.7%. Further, the amount remaining at […] in data set [7] (buffer) is 9.36%. In data set [7] (buffer), this molecule yielded a fraction remaining at 0.5 h of 3.21%. For the same molecule, the fraction remaining at 1 h in [7] (buffer) stood at 3.12%. In addition, the amount remaining at 2 h in data set [7] (buffer) turned out to be 2.27%. In addition, the BET protein degradation result in data set [8] is “induced selective degradation of BET proteins (BRD3, BRD4 and, to a lesser extent, BRD2); also recorded: especially potent in the Ewing sarcoma TC-71 cell line”. The microsomal CLint in data set [12] worked out at 254 µL/min/mg; in [13] it was 195 µL/min/mg.

In data set [7] (glutathione (GSH) solution), `CN(C)C/C=C/C(=O)Nc1cc2c(Nc3ccc(F)c(Cl)c3)ncnc2cc1O[C@H]1CCOC1` [Afatinib, reference compound] yielded a half-life of 25.2 min, an amount remaining at 5 min of 82.1%, an amount remaining at […] of 48.1% and a fraction remaining at 0.5 h of 27.6%. For the same molecule, in [7] (glutathione (GSH) solution), the amount remaining at 1 h stood at 13.8% and the share remaining at 2 h came out at 3.43%.

Regarding `Cc1sc2c(c1C)C(c1ccc(NC(=O)c3ccc(S(=O)O)c(Cl)c3)cc1)=N[C@@H](CC(=O)OC(C)(C)C)c1nnc(C)n1-2` [ZZ1-SO2H], the “activity in cellular assays” value in data set [6] was “inactive”. The “affinity between degrader and YPEL5 by BLI” value in data set [14] is on record as “did not observe measurable affinity”. For the same molecule, the half-maximal effective concentration (EC50) in data set [15] was 60 nM and ~60 nM and 74 nM. In addition, the “BRD4BD1 ubiquitylation in vitro” value in data set [16] is “promoted robust BRD4BD1 ubiquitylation”.

Take `Cc1sc2c(c1C)C(c1ccc(NC(=O)c3ccc(S(=O)(=O)O)c(Cl)c3)cc1)=N[C@@H](CC(=O)OC(C)(C)C)c1nnc(C)n1-2` [ZZ1-SO3H]: the “activity in cellular assays” value in data set [6] was “inactive”. Also, the “BRD4BD1 ubiquitylation in vitro” value in [16] is “promoted robust BRD4BD1 ubiquitylation”.

For the origin of these results see PMC13355314, “Charged molecular glue discovery enabled by targeted degron display” (Nature Chemical Biology, 2026).
